Measurements as given in paper PMC12434668 (Journal of Medicinal Chemistry, 2025).
≈ marks a conversion by molar mass, not a printed value. Read-outs that look alike come from different tables or passages of the source.

Assays:
[1] = system: A427 cells; test: In vitro proliferation assay (CellTiter-Glo), A427; assay type: cell-based; settings: Homo sapiens, A-427; A427 cell line; average of at least n = 2, triplicate
Description: (§1) NCI-H929, A427, and K562 cell lines were obtained from ATCC. NCI-H929 cells were cultured in RPMI1640 (ATCC-formulated, Catalog No. 30-2001) + 10% fetal calf serum (FCS, GIBCO BRL, Cat. No. 26140) + 0.05 mM mercaptoethanol. A-427 cells were cultured in RPMI1640 (ATCC-formulated, Catalog No. 30-2001) + 10% fetal calf serum (FCS, GIBCO BRL, Cat. No. 26140). K562 cell lines were cultured in Iscove’s Modified Dulbecco Medium (Gibco-formulated, purchased from Thermo-Fisher, Cat. No. 12440-053) + 10% fetal bovine serum (FBS, Sigma-Aldrich, F2442). All cell lines were cultured at 37 °C with 5% CO2 in a humidified incubator and have been regularly tested negatively for mycoplasm contamination.
(§2) Cells were seeded at 750–1500 cells per well (depending on growth kinetics) in 384-well plates (Corning, Catalog No. 3707) or at 3000 cells per well in 96-well plates in the respective growth medium and allowed to settle overnight. Suspension cells were plated immediately before compound addition. Adherent cell lines were incubated overnight at 37 °C in a tissue culture incubator prior to compound addition. Compounds were added in triplicates using an HP D300e Digital Dispenser (Hewlett-Packard) or manually at the concentrations indicated and total volumes were normalized using DMSO backfill, with final DMSO concentration of 0.5%. Control wells were treated with DMSO only. Following incubation for 72 or 96 h, a Cell Titer-Glo assay was conducted following the manufacturer recommendations (Promega, G9243) and luminescence was measured using a Victor X5 (PerkinElmer) or a Cytation 3 (Biotek) plate reader. % Viability was defined as relative luminescence units (RLU) of each well divided by the RLU of cells on day 0. Four parameter sigmoidal dose–response curves were generated and IC50 values were determined using XLFit (IDBS) software (eq 205) or in-house software. Drug combination experiments were performed in 96-well or 384-well format and drug synergy was determined using the BLISS model (PMID: 26171228).

[2] = molecular target: T1, Mcl-1 (Homo sapiens, UniProt Q07820); test: TR-FRET binding assay (FITC-Bak peptide competition)
T1 construct: Briefly, a previously reported construct was subcloned into an expression vector (pDEST-HisMBP); MBP (from vector pDEST-HisMBP); made in house; host or cells: Escherichia coli BL21 CodonPlus (DE3) RIL
T1 sequence (Q07820 whole entry): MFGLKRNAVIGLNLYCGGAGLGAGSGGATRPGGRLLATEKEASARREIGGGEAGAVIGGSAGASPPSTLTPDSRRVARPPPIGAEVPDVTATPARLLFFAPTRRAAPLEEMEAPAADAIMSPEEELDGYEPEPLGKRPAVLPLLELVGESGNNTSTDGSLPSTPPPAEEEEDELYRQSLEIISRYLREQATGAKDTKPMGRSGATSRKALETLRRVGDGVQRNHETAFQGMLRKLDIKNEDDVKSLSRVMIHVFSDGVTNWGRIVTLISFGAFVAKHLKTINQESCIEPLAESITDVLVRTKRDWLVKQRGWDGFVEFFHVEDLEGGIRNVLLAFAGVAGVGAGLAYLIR
Excerpt: Protein preparation was described previously. Briefly, a previously reported construct was subcloned into an expression vector (pDEST-HisMBP) expressed in Escherichia coli BL21 CodonPlus (DE3) RIL (Stratagene) and purified through nickel-column and size-exclusion chromatography sequentially.
Mixtures containing vehicle without compound served as a negative control, while mixtures containing no protein served as a positive control. […] Two or more repeats were obtained and average K i values are reported.

[3] = system: NCI-H929 cells; test: In vitro proliferation assay (CellTiter-Glo), H929; assay type: cell-based; settings: Homo sapiens, H929 cell line, average of at least n = 2, triplicate
Description: as §1, §2

[4] = system: K562 cells; test: In vitro proliferation counterscreen, Mcl-1 insensitive K562; assay type: cell-based; settings: Homo sapiens; Mcl-1 insensitive K562; top concentration tested 12.5 µM
Description: NCI-H929, A427, and K562 cell lines were obtained from ATCC.
Suspension cells were plated immediately before compound addition. Adherent cell lines were incubated overnight at 37 °C in a tissue culture incubator prior to compound addition. Compounds were added in triplicates using an HP D300e Digital Dispenser (Hewlett-Packard) or manually at the concentrations indicated and total volumes were normalized using DMSO backfill, with final DMSO concentration of 0.5%. Control wells were treated with DMSO only. Following incubation for 72 or 96 h, a Cell Titer-Glo assay was conducted following the manufacturer recommendations (Promega, G9243) and luminescence was measured using a Victor X5 (PerkinElmer) or a Cytation 3 (Biotek) plate reader. % Viability was defined as relative luminescence units (RLU) of each well divided by the RLU of cells on day 0.

[5] = system: caspase 3/7 in K562 cells; test: Caspase 3/7 induction assay (Caspase-Glo), K562; assay type: cell-based; settings: compound treatment for 3 h; for EC50: Homo sapiens, K562
Description: (§3) Cells were treated with a 10-point compound titration and incubated at 37 °C for 3 h.

[6] = Mouse pharmacokinetic analyses (i.v. and oral); assay type: in vivo; settings: plasma; for AUC: dose not printed at this place
Description: For PK analysis, mice were administered intravenously or orally with compound formulated in 10% ethanol and 10% Cremophor EL. Compound 13 dosing was also screened with 20% Phosphal IPG, 20% Phosphal MCT, 10% HP-β-CD, and 40% HP-β-CD. Plasma samples were obtained at predefined time points and compound concentrations in plasma were measured by quantitative HPLC–MS/MS using an internal standard. Calibration and quality control samples were prepared using blank plasma from untreated animals. Samples were precipitated with acetonitrile and injected into a HPLC system (Agilent 1200). Separation was performed by gradients of 5 mmol/L ammonium acetate pH 5.0 and acetonitrile with 0.1% formic acid on a Luna C8 reversed-phase column with 2.5 μm particles (Phenomenex). The HPLC was interfaced by ESI operated in positive ionization mode to a triple quadrupole mass spectrometer (6500+ Triple Quad System, SCIEX) operated in multiple reaction monitoring mode. Chromatograms were analyzed with Analyst (SCIEX) and pharmacokinetic parameters were calculated by noncompartmental analysis using proprietary software.

[7] = system: caspase 3/7 in A427 cells; test: Caspase 3/7 induction assay (Caspase-Glo), A427; assay type: cell-based; settings: compound treatment for 3 h; for EC50: Homo sapiens, A-427
Description: as §3

[8] = system: caspase 3/7 in H929 cells; test: Caspase 3/7 induction assay (Caspase-Glo), H929; assay type: cell-based; settings: compound treatment for 3 h; for EC50: Homo sapiens, NCI-H929
Description: as §3

[9] = Kinetic aqueous solubility; assay type: physicochemical; settings: aqueous medium, pH 6.8
[10] = in the presence of 1% fetal bovine serum, average of at least n = 2, read-out: TRFRET, Mcl-1 Ki
[11] = supplementary CSV, unit inferred, read-out: Ki TRFRET
[12] = iv, dosed at 20 mg/kg, read-out: i.v. mouse CL
[13] = iv, supplementary CSV, unit not given (Table 1: 20 mg/kg, 14 and 16 at 10 mg/kg), read-out: CL

Ki [2, 10] | Ki [2, 11] | GI50 [3] | EC50 [5] | clearance [6, 12] | clearance [6, 13] | EC50 [7] | EC50 [8] | solubility kinetic [9] | AUC ([6]; iv, read-out: AUCIV) | AUC ([6]; oral, read-out: AUCPO) | bioavailability ([6]; po, read-out: oral bioavailability (F)) | SMILES | GI50 [1] | GI50 [4] | K562 Caspase 3/7 fold over vehicle (FoV) [5] | A427 Caspase 3/7 fold over vehicle (FoV) [7] | H929 Caspase 3/7 maximum activity, fold over vehicle (FoV) [8]
< 0.08 nM | 0.04 nM | 35 ± 16 nM | > 3120 nM | 14.8 mL/min/kg | 14.8 mL/min/kg | 28 nM | 36 nM | – | – | – | – | COc1c(C)cc2c3c1cc(C(=O)O)n3CCCOCc1nn(C)cc1-c1c(Cl)ccc3c(CCCOc4cc(C)c(Cl)c(C)c4)c4n(c13)[C@H](C)CN2C4=O [Compound 18, (2^63^4 S a ,1^72^2 R a ,2^4 R)-2^7-Chloro-2^10-(3-(4-chloro-3,5-dimethylphenoxy)propyl)-1^4-methoxy-1^5,2^4,3^1-trimethyl-2^1-oxo-2^1,2^2,2^3,2^4-tetrahydro-1^1 H,3^1 H-5-oxa-2(2,6)-pyrazino [1,2-a]indola-1(7,1)-indola-3(4,3)-pyrazolacyclooctaphane-1^2-carboxylic Acid] | 51 ± 20 nM | > 12500 nM | 1.4 fold | 16 fold | 17 fold
< 0.08 nM | < 0.02 nM | 10 ± 3 nM | > 3120 nM | 19.8 mL/min/kg | 19.8 mL/min/kg | 13 nM | 11 nM | – | – | – | – | COCCOc1cc2c3c(cc(C(=O)O)n3CCCOCc3nn(C)cc3-c3c(Cl)ccc4c(CCCOc5cc(C)c(Cl)c(C)c5)c5n(c34)[C@H](C)CN2C5=O)c1OC [Compound 19, (2^63^4 S a ,1^72^2 R a ,2^4 R)-2^7-Chloro-2^10-(3-(4-chloro-3,5-dimethylphenoxy)propyl)-1^4-methoxy-1^5-(2-methoxyethoxy)-2^4,3^1-dimethyl-2^1-oxo-2^1,2^2,2^3,2^4-tetrahydro-1^1 H,3^1 H-5-oxa-2(2,6)-pyrazino[1,2-a]indola-1(7,1)-indola-3(4,3)-pyrazolacyclooctaphane-1^2-carboxylic Acid] | 18 ± 6 nM | > 11200 nM | 1.4 fold | 14 fold | 16 fold
0.08 ± 0.02 nM | – | 31 ± 13 nM | > 3120 nM | 8.9 mL/min/kg | 8.9 mL/min/kg | 31 nM | 23 nM | – | – | – | – | COc1c(OCC2CCOCC2)cc2c3c1cc(C(=O)O)n3CCCOCc1nn(C)cc1-c1c(Cl)ccc3c(CCCOc4cc(C)c(Cl)c(C)c4)c4n(c13)[C@H](C)CN2C4=O [Compound 20, (2^63^4 S a ,1^72^2 R a ,2^4 R)-2^7-Chloro-2^10-(3-(4-chloro-3,5-dimethylphenoxy)propyl)-1^4-methoxy-2^4,3^1-dimethyl-2^1-oxo-1^5-((tetrahydro-2H-pyran-4-yl)methoxy)-2^1,2^2,2^3,2^4-tetrahydro-1^1 H,3^1 H-5-oxa-2(2,6)-pyrazino[1,2-a]indola-1(7,1)-indola-3(4,3)-pyrazolacyclooctaphane-1^2-carboxylic Acid] | 55 ± 26 nM | > 12500 nM | 1.3 fold | 14 fold | 16 fold
< 0.08 nM | < 0.02 nM | 17 ± 8 nM | > 3120 nM | 8 mL/min/kg | 8 mL/min/kg | 17 nM | 12 nM | – | – | – | – | COc1cc2c3c(cc(C(=O)O)n3CCCOCc3ncccc3-c3c(Cl)ccc4c(CCCOc5cc(C)c(Cl)c(C)c5)c5n(c34)[C@H](C)CN2C5=O)c1OC [Compound 21, (2^63^4 S a ,1^72^2 R a ,2^4 R)-2^7-Chloro-2^10-(3-(4-chloro-3,5-dimethylphenoxy)propyl)-1^4,1^5-dimethoxy-2^4-methyl-2^1-oxo-2^1,2^2,2^3,2^4-tetrahydro-1^1 H-5-oxa-2(2,6)-pyrazino[1,2-a]indola-1(7,1)-indola-3(3,2)-pyridinacyclooctaphane-1^2-carboxylic Acid] | 39 ± 7 nM | > 12500 nM | 1.4 fold | 14 fold | 16 fold
0.08 ± 0.01 nM | – | 29 ± 6 nM | – | 3.5 mL/min/kg | 3.5 mL/min/kg | – | – | 11 µg/mL (≈ 13.8 µM) | – | – | – | COc1cc2c3c(cc(C(=O)O)n3CCCOCc3ccncc3-c3c(Cl)ccc4c(CCCOc5cc(C)c(Cl)c(C)c5)c5n(c34)[C@H](C)CN2C5=O)c1OC [Compound 22, (2^63^4 S a ,1^72^2 R a ,2^4 R)-2^7-Chloro-2^10-(3-(4-chloro-3,5-dimethylphenoxy)propyl)-1^4,1^5-dimethoxy-2^4-methyl-2^1-oxo-2^1,2^2,23,24-tetrahydro-11H-5-oxa-2(2,6)-pyrazino[1,2-a]indola-1(7,1)-indola-3(3,4)-pyridinacyclooctaphane-1^2-carboxylic Acid] | 58 ± 4 nM | > 12500 nM | – | – | –
< 0.08 nM | 0.077 nM | 39 ± 7 nM | > 3120 nM | 6.4 mL/min/kg | 6.4 mL/min/kg | 24 nM | 17 nM | – | 136 µM·h | 14 µM·h | 22% | COc1cc2c3c(cc(C(=O)N(C)C)n3CCCOCc3nn(C)cc3-c3c(Cl)ccc4c(CCCOc5cc(C)c(Cl)c(C)c5)c5n(c34)[C@H](C)CN2C5=O)c1OC [Compound 25, (2^63^4 S a ,1^72^2 R a ,2^4 R)-2^7-chloro-2^10-(3-(4-chloro-3,5-dimethylphenoxy)propyl)-1^4,1^5-dimethoxy-N,N,2^4,3^1-tetramethyl-2^1-oxo-2^1,2^2,2^3,2^4-tetrahydro-1^1 H,3^1 H-5-oxa-2(2,6)-pyrazino[1,2-a]indola-1(7,1)-indola-3(4,3)-pyrazolacyclooctaphane-1^2-carboxamide] | 105 ± 24 nM | > 12500 nM | 1.4 fold | 14 fold | 16 fold
